Results on one molecule are retold here after patent US8383642B2, “Spiropiperidine compounds” (Eli Lilly and Company, priority 2009, dated 2013).

One test addresses T1, human GPR40 (Homo sapiens, UniProt O14842).
T1 construct: expressed in transfected cells; host or cells: HEK293
Description: Calcium Flux Primary Assay. The test is classed as cell-based. The method, then:
HEK293 cells over expressing the human GPR40 cDNA maintained in Dulbecco's modified Eagle's medium with F12 medium in 3:1 ratio supplemented with 10% FBS and 800 μg/ml geneticin at 37° C. and 5% CO2 are employed for the study. Agonist assays are performed using a Calcium 4 Dye assay kit (Molecular Devices) in the presence (0.1%) or absence of fatty acid free BSA in the assay buffer (1×HBSS (Hank's Balanced Salt Solution) & 20 mM HEPES (4-(2-hydroxyethyl)-1-piperazineethanesulfonic acid). Receptor activation is measured as an increase in intracellular calcium using the Fluorometric Imaging Plate Reader (FLIPR). Maximum change in fluorescence over the base line is used to determine agonist response. EC50 (effective concentration at half the maximal response) value of the compound is calculated using Excel Fit software (version 4; IDBS) by plotting concentration vs relative fluorescence units (RFUs).
For orientation: A change in cytosolic calcium serves as a functional read-out for many receptors and channels.

The target in another test is T2, PPARα (Homo sapiens, UniProt Q07869).
T2 construct: made in house; host or cells: HEK293 (cell lysates)
T2 sequence (Q07869 1-468): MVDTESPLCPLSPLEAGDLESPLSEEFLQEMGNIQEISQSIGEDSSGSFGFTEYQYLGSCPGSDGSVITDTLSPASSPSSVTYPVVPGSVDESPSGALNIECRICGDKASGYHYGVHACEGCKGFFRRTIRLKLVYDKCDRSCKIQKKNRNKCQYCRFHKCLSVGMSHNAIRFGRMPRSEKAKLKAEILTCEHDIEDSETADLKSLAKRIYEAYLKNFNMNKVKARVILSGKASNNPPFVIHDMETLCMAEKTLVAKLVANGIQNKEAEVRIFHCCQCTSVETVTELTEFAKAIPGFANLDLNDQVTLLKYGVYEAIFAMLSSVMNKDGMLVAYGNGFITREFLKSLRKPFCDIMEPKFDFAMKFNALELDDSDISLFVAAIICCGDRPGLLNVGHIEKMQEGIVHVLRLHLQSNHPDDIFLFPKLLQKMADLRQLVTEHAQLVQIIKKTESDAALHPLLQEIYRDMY
T2 sequence (P19793 1-462 partner): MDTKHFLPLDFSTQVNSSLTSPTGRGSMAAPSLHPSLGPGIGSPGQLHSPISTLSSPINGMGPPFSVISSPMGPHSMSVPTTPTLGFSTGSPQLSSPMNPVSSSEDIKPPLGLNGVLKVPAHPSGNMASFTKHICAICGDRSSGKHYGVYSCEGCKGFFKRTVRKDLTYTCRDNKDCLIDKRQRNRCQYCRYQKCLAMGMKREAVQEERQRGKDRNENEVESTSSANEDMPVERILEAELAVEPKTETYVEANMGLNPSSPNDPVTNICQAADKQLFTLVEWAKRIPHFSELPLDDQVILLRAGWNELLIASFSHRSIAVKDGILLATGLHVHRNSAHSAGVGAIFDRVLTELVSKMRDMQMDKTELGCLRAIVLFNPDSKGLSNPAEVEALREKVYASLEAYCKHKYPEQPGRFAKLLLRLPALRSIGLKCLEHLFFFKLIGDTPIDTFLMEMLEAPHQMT
Description: PPARα binding assay (SPA). The following applies: concentrations up to 10 μM. The procedure: Because GPR40 is known to be activated by ligands to PPARγ exemplified compounds are examined in PPARα, PPARδ, and PPARγ binding and functional assays to determine the selectivity of exemplified compounds for GPR40. Compounds exemplified herein are tested essentially as described below for PPAR binding and generally have binding values greater than 1000 nM with 10 μM concentrations of test compound and are thus considered negative for PPAR activity.
Binding affinities of compounds for the PPAR α, δ, and γ receptors are assessed using Scintillation Proximity Assay (SPA) technology. Biotinylated oligonucleotide Direct Repeat 2 (DR2) is used for binding the receptors to Yttrium silicate streptavidin-coated SPA beads. […] Non-specific binding is determined in the presence of 10,000 nM of the unlabeled PPAR α/δ dual agonist reference compound for the alpha and delta receptor assays and the PPARγ agonist reference compound for the gamma receptor assay. The binding reaction (100 μl per well in a 96 well [Costar 3632] plate) is incubated for 10 h and counted disintegration per minutes (dpm) on a Wallac Microbeta. Receptor binding affinity (IC50) for the compounds is determined by fitting an 11 point concentration-response curve with a 4-parameter logistic equation. Ki, is determined from the IC50 using the Cheng-Prussoff equation and Kd determined by saturation binding. […]

T1 sequence (O14842 whole entry): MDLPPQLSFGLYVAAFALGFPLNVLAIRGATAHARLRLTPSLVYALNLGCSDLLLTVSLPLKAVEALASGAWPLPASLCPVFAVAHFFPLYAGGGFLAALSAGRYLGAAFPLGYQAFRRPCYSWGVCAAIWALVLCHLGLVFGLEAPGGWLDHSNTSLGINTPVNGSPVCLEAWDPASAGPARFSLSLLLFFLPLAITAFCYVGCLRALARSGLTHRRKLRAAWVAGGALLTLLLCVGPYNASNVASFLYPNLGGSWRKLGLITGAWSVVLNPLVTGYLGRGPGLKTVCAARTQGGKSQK

A word on the EC50: it is the concentration at which the effect is half-maximal. For the molecule `CC#C[C@@H](CC(=O)O)c1ccc(OCc2ccc(CN3CCC4(C=Cc5ccccc54)CC3)cc2)cc1` [Example 1, (3S)-3-(4-{[4-(1′H-Spiro[indene-1,4′-piperidin]-1′-ylmethyl)benzyl]oxy}phenyl)hex-4-ynoic acid], on human GPR40 (HEK293 cells over expressing human GPR40, FLIPR calcium), the EC50 worked out at 0.186 µM. Further, the efficacy on human GPR40 (maximal response compared to the natural ligand, linoleic acid) was 91+/−10%. Moreover, the binding detected entry at PPARα is “no binding is detected”.
